Columns and labels:
[1] = tested on: endogenous a-syn in SNCA triplication fibroblasts; test: a-syn immunofluorescence in SNCA triplication fibroblasts; assay type: cell-based, human
Source text: Fig. 6 PDpep1.3 reduces endogenous a-syn levels and rescues lysosomal activity in human PD cell models. A Representative images of fibroblasts from a PD patient with SNCA triplication transduced with Scramble1.3-RFP or PDpep1.3-RFP (scale bars = 10 µm). B Quantification of relative a-syn fluorescence in RFP-positive fibroblasts. Bars represent means ± s.e.m. (one-way ANOVA, F(3, 36) = 6.159; P = 0.0017 followed by Dunnett’s post-test; n = 3). C Endolysosomal flux assay using confocal microscopy in SNCA triplication fibroblasts transduced with AAV-Scramble1.3-RFP or AAV-PDpep1.3-RFP. Cells were treated as indicated with Bafilomycin A1 (Baf). Bars represent means ± s.e.m. (nested one-way ANOVA, F(3, 10) = = 23.70; P < 0.0001 followed by Dunnett’s post-test; n = 3). D Representative images of human iPSC-derived dopaminergic neurons with A53T a-syn mutation or isogenic controls without a-syn mutation. These iPSC-derived dopaminergic neurons were transduced with Scramble1.3-RFP or PDpep1.3-RFP and immunostained with anti-a-syn, anti-TH, or anti-LAMP1 antibodies (scale bars = 5 μm). E Quantification of relative a-syn fluorescence intensity in RFP-positive A53T mutant and control iPSC-derived dopaminergic neurons. Bars represent means ± s.e.m. […] F Quantification of relative LAMP1 fluorescence intensity in RFP-positive A53T mutant and control iPSC-derived dopaminergic neurons. […]

[2] = tested on: endolysosomal flux in SNCA triplication fibroblasts; test: Endolysosomal flux assay, confocal microscopy, SNCA triplication fibroblasts; assay type: cell-based, human
Experimental: Flux via the endolysosomal pathway was measured with the Lysosome Intracellular Activity Assay Kit which was purchased from Abcam (ab234622) and used according to the manufacturer’s instructions. The kit provides a proprietary lysosome-specific self-quenched substrate which has low background fluorescence, high signal-to-background ratio, and is pH insensitive. In the assay, the substrate is taken up by cells and acts as endocytic cargo which is degraded within an endolysosomal vesicle. Following degradation, the fluorescence signal recovered from the substrate is proportional to the intracellular lysosomal activity. The activity can be measured by fluorescence microscopy or FACS. The assay was performed with HEK293T cells or SNCA triplication fibroblasts (obtained from NINDS Human Genetics Resource Center DNA and Cell Line Repository; NINDS Repository sample number ND27760). Cells were maintained in DMEM supplemented with 10% FBS and 1% pen/strep/glutamine. Cell medium was replaced with fresh medium containing DMSO, Leupeptin, or Bafilomycin A1 and incubated for 1 h at 37 °C with 5% CO2. Self-quenched substrate was added into each condition and incubated for 1 h (HEK293T cells) or overnight (SNCA triplication fibroblasts) at 37 °C with 5% CO2. […] For HEK293T cells, cells were resuspended in PBS containing DMSO or Leupeptin and analyzed by FACS. […]

Sequence: DEEIERQLKALG [PDpep1.3]
- Effect on a-syn fluorescence in fibroblasts [1]: reduced a-syn fluorescence
- Effect on a-syn levels in presence of Bafilomycin A1 ([1]; + Bafilomycin A1): could not reduce a-syn levels
- Effect on endolysosomal flux in fibroblasts [2]: increased endolysosomal flux
